Laboratory results published in publication PMC7884015 (Journal of Agricultural and Food Chemistry, 2021).
Entries after “also recorded” stand apart in the source; their conditions may differ. Where two headings read alike, the source gives them in different places.

Experiments:
[1] = for Metabolization percentage, day 4 to 5: quantity in whole bees vs intake during the last 24 h of feeding
Source text: (§1) Honey bees (A. mellifera L) were collected from brood frames in the apiary of Aarhus University, Flakkebjerg. The collected bees were fed on 50% sucrose for 3 days. On day 3, the bees were divided into eight experimental groups placed in feeding cages (N = 49–73). The exact numbers of bees in the individual cages were counted at the end of the experiment. A portion of bees were also collected for the analysis of the presence of the compounds prior to the experiment. Thus, these bees served as a negative control group. The feeding boxes were placed in incubators in complete darkness under the following conditions: 34 °C; 38–40% relative humidity. Information about plants known to produce the phytochemicals fed to the honey bees is included in the Supporting Information (Table S1). The prepared solutions were placed in 1.5 mL Eppendorf tubes, and the bottom of the tubes was pierced with a sterilized needle to allow the bees to feed on the solution. The feeding solutions were replaced every 24 h to prevent compound degradation and measure food intake. Dead bees were counted and removed daily. On day 5, the feeding containers were removed, and 2 h later, the bees were anesthetized with CO2 and killed by freezing.
Twelve individual bees from each of the experimental groups were rinsed with water and placed individually in 1.5 mL Eppendorf tubes. The bees were then lyophilized and transferred individually to Falcon tubes for extraction. […] The extraction solvents were added, and the bees were extracted by shaking using an Intelli-Mixer for 1 h (60 rpm). […] After extraction, the samples were centrifuged (12 min, 4 °C, 4500 rpm). […] Extracts of bees fed on triptolide were further purified by solid phase extraction (SPE) using a protocol modified from Wang et al.[30] One milliliter of the methanol extracts was diluted to 10 mL with Milli-Q water, 100 μL of formic acid was added, and the diluted extracts were loaded onto 30 mg Oasis HLB prime SPE (Waters, Hedehusene, Denmark) cartridges without prior column conditioning. The SPE cartridges were first washed with 1 mL of 2% ammonium hydroxide in 1:9 methanol/water and then with 1 mL of 2% acetic acid in 3:7 methanol/water, and triptolide was eluted from the cartridges with 1 mL of 4:1 methanol/water. Prior to HPLC-MS/MS analyses, 225 μL of the SPE eluates was diluted with 275 μL of 5 mM ammonium formate and filtered using a syringe filter (Kinesis KX PTFE syringe filter 13 mm, 0.22 μm, Mikrolab, Aarhus, Denmark).
(§2) Prior to the analysis, the compound-dependent mass spectrometer parameters of the eight compounds were optimized by infusion. For each compound, two MRM transitions were monitored (Table 2); one transition was used for quantification, whereas the other was used as a qualifier MRM to ensure correct identification.
(§3) The compounds were separated on a Synergy Fusion column (150 mm × 2 mm, 4 μm; Phenomenex, Værløse, Denmark) with a flow rate of 0.4 mL/min, and the gradient was as follows: 0–2 min: 100% A; 2–18 min: 100–30% A; 18–19 min: 30–0% A; 19–22 min: 0% A; 22–23 min: 0–100% A and 23–30 min: 100% A. Source parameters were as follows: curtain gas (CUR), 45 psi; collision gas (CAD), medium; temperature (TEM), 400 °C; ion source gas 1 (GS 1), 90 psi; ion source gas 2 (GS 2), 30 psi; and ionspray voltage (IS), 4200 V. Amygdalin was analyzed using the same source parameters and chromatographic method as described above, but in negative mode. […] The column was a Hypersil BDS C18 (250 mm × 2.1 mm, 5 μm; Thermo Fisher, Hvidovre, Denmark), and the solvent system consisted of 5 mM ammonium formate (A) and methanol (B). […] An injection volume of 30 μL was used for the triptolide analyses, whereas 20 and 30 μL were injected for the remaining compounds for whole and dissected bees, respectively.

in vivo = details: for Bee without gut %: percentage of total quantity recovered in the dissected bee found in the bee without gut; for Bee without gut % / Gut %: N = 6; for Gut %: percentage of total quantity recovered in the dissected bee found in the gut
Source text: as §1
Six bees from each of the experimental groups were defrosted and rinsed with water, and their heads were removed with a scalpel to cut the esophagus. The complete alimentary canal (hereafter “gut”) was removed by grabbing the stinger with tweezers and gently pulling until the alimentary canal was released.[31] The two samples consisting of the gut and the rest of the bee without the gut (head, thorax, and abdomen; hereafter, “bee without gut”) were lyophilized separately in 1.5 mL Eppendorf tubes. Upon drying, the samples comprising the bees without guts were transferred to the extraction Falcon tubes, pulverized, and extracted as described above for the whole bees. Samples comprising the guts were instead pulverized directly in the 1.5 mL Eppendorf tubes by adding two metal beads and placing these tubes in the Geno/Grinder using a modified rack. Because of the small sample size, the pulverized guts were then gradually transferred to the extraction Falcon tubes using the extraction solvents to flush the material from the Eppendorf tubes. The remaining parts of the extraction followed the protocols described above for whole bees.
as §2, §3
In the individual dissected bees (N = 6), the sum of the quantities recovered in the guts and the bees without guts designates the total quantity of compound recovered in that individual.

honey bees = details: cited from earlier work
[2] = system: honey bee memory retrieval; details: cited from earlier work
Crithidia bombi = details: bumble bees; cited from earlier work
[3] = system: honey bee immune functions (antimicrobial peptide hymenoptaecin); design: method as in PMID 28981688; details: cited from earlier work
[4] = comparison between the eight phytochemicals, P < 0.05
[5] = whole bees N = 12, sampled day 5, 2 h after feeding was terminated, ± SD
[6] = dissected bees N = 6, day 5, ± SD
[7] = in vivo, po, oral bioavailability (%), percentage of the total ingested quantity over the 5-day feeding period recovered in the bees without guts, ± SD, dissected bees N = 6
[8] = percentage of the total ingested quantity over the 5-day feeding period recovered in the bees without guts, ± SD, dissected bees N = 6
[9] = honey bee (Apis mellifera), in vivo, po, oral bioavailability (%), percentage of the total ingested quantity over the 5-day feeding period recovered in the bees without guts, ± SD, dissected bees N = 6
[10] = honey bee (Apis mellifera), in vivo

SMILES: N#C[C@H](O[C@@H]1O[C@H](CO[C@@H]2O[C@H](CO)[C@@H](O)[C@H](O)[C@H]2O)[C@@H](O)[C@H](O)[C@H]1O)c1ccccc1 [amygdalin, Amygdalin]
- Relative metabolization rate [1, 4]: metabolized significantly faster
- Mean concentration (ng/bee) in whole bees [1, 5]: 238 ± 218 ng/bee
- Bee without gut (ng/bee) (in vivo; [6]): 833 ± 511 ng/bee
- Gut (ng/bee) (in vivo; [6]): 78 ± 34 ng/bee
- bioavailability (in vivo; [7]): 31 ± 19%
- Bee without gut % (in vivo; ± SD): 90 ± 5%
- Gut % (in vivo; ± SD): 11%
- LD50 (honey bees): 0.003%

SMILES: CN1[C@@H]2CC[C@H]1C[C@@H](OC(=O)C(CO)c1ccccc1)C2 (stereo partly shown) [atropine, Atropine, reference compound]
- Mean concentration (ng/bee) in whole bees [1, 5]: 236 ± 76 ng/bee
- Bee without gut (ng/bee) (in vivo; [6]): 89 ± 65 ng/bee
- Gut (ng/bee) (in vivo; [6]): 90 ± 17 ng/bee
- Bee without gut % (in vivo; ± SD): 46 ± 15%
- Gut % (in vivo; ± SD): 54 ± 15%
- Consumed concentration that can impair honey bee memory retrieval [2]: above 10^–2 M

SMILES: CCN1C[C@]2(COC(=O)c3ccccc3N3C(=O)C[C@H](C)C3=O)CC[C@H](OC)[C@@]34[C@@H]5C[C@H]6[C@H](OC)[C@@H]5[C@](O)(C[C@@H]6OC)[C@@](O)([C@@H](OC)[C@H]23)[C@@H]14 [methyllycaconitine, Methyllycaconitine]
- Relative metabolization rate [1, 4]: metabolized significantly faster
- Mean concentration (ng/bee) in whole bees [1, 5]: 0.3 ± 0.2 ng/bee
- Bee without gut (ng/bee) (in vivo; [6]): 0.2 ± 0.1 ng/bee
- Gut (ng/bee) (in vivo; [6]): 0.05 ± 0.03 ng/bee
- bioavailability (in vivo; [7]): < 10%
- Bee without gut % (in vivo; ± SD): 81 ± 13%
- Gut % (in vivo; ± SD): 19 ± 13%

SMILES: C=C[C@]12CN(C)[C@@H]3[C@H]4CO[C@H](C[C@H]41)[C@]1(C(=O)Nc4ccccc41)[C@@H]32 [gelsemine, Gelsemine]
- Relative metabolization rate [1, 4]: metabolized significantly faster
- Mean concentration (ng/bee) in whole bees [1, 5]: 508 ± 174 ng/bee
- Bee without gut (ng/bee) (in vivo; [6]): 461 ± 415 ng/bee
- Gut (ng/bee) (in vivo; [6]): 106 ± 67 ng/bee
- bioavailability at 5 day (in vivo; [7]): 6%
- oral bioavailability (%) (in vivo; [8]): 6.1 ± 5.5%
- Bee without gut % (in vivo; ± SD): 71 ± 32%
- Gut % (in vivo; ± SD): 30%
- Gut % (in vivo; ± SD, listed as Gelsemine): 30 ± 32%
- Effect on levels of the bumble bee gut protozoan Crithidia bombi (Crithidia bombi): significantly decreased the levels

SMILES: CC(C)[C@]12O[C@H]1[C@@H]1O[C@]13[C@]1(O[C@H]1C[C@H]1C4=C(CC[C@@]13C)C(=O)OC4)[C@@H]2O [triptolide, Triptolide]
- Relative metabolization rate [1, 4]: metabolized significantly slower
- Metabolization percentage, day 4 to 5 [1]: significantly lower; also recorded: negative metabolization percentages
- Metabolization percentage, day 1 to 5 ([1]; quantity in whole bees vs total intake over the 5-day feeding period, day 5, 2 h after feeding was terminated): significantly lower
- Mean concentration (ng/bee) in whole bees [1, 5]: 4.4 ± 2.8 ng/bee
- Bee without gut (ng/bee) (in vivo; [6]): 3.1 ± 1.5 ng/bee
- Gut (ng/bee) (in vivo; [6]): 0.6 ± 0.2 ng/bee
- bioavailability (in vivo; [7]): 21%
- oral bioavailability (%) (in vivo; [8]): 20.6 ± 9.9%
- Bee without gut % (in vivo; ± SD): 79 ± 11%
- Gut % (in vivo; ± SD): 21 ± 11%

SMILES: OCC1=C[C@@H](O)[C@@H]2C=CO[C@@H](O[C@@H]3O[C@H](CO)[C@@H](O)[C@H](O)[C@H]3O)[C@H]12 [aucubin, Aucubin]
- Relative metabolization rate [1, 4]: metabolized significantly slower
- Metabolization percentage, day 4 to 5 [1]: significantly lower; also recorded: negative metabolization percentages
- Mean concentration (ng/bee) in whole bees [1, 5]: 16400 ± 5640 ng/bee
- bioavailability (in vivo; [9]): 13%
- bioavailability (in vivo; [7]): 13.1 ± 3.8%
- Effect on levels of the bumble bee gut protozoan Crithidia bombi (Crithidia bombi): significantly decreased the levels
- Effect on expression of the antimicrobial peptide hymenoptaecin ([3]; aucubin feeding): significantly increased the expression
- Effect on honey bee immune functions [3]: significantly stimulated honey bee immune functions

SMILES: C/C=C1/C[C@@H](C)[C@@](C)(O)C(=O)OCC2=CCN3CC[C@@H](OC1=O)[C@@H]23 [senecionine, Senecionine]
- Mean concentration (ng/bee) in whole bees [1, 10]: 4.9 ± 1.6 ng/bee
- Relative metabolization rate ([1]; in vivo): metabolized significantly faster
- Bee without gut (ng/bee) (in vivo; [10]): 3.4 ± 2.2 ng/bee
- Gut (ng/bee) (in vivo; [10]): 2.3 ± 1.3 ng/bee
- bioavailability (in vivo; honey bee (Apis mellifera), in vivo, po, oral bioavailability (%)): < 10%
- bioavailability (in vivo; in vivo, po, oral bioavailability (%)): 4 ± 2.6%

SMILES: C/C=C1/C[C@@H](C)[C@@](C)(O)C(=O)OC/C2=C/CN(C)CC[C@@H](OC1=O)C2=O [senkirkine, Senkirkine]
- Relative metabolization rate [1, 4]: metabolized significantly faster
- Mean concentration (ng/bee) in whole bees [1, 5]: 7.4 ± 3.5 ng/bee
- Bee without gut (ng/bee) (in vivo; [6]): 7.0 ± 4.9 ng/bee
- Gut (ng/bee) (in vivo; [6]): 2.3 ± 3.0 ng/bee
- bioavailability (in vivo; [9]): < 10%
- bioavailability (in vivo; [7]): 9%
- oral bioavailability (%) (in vivo; [8]): 8.9 ± 6.3%
- Bee without gut % (in vivo; ± SD): 73 ± 28%
- Gut % (in vivo; ± SD): 27%
